Laboratory results published in PMC4035770 (Pharmaceuticals, 2014).

Columns and labels:
[1] = biological target: T1, Serotonin transporter (SERT) (Homo sapiens, UniProt P31645); experiment: biochemical
[2] = biological target: T2, Dopamine active transporter (DAT) (Homo sapiens, UniProt Q01959); experiment: Pharmacological screen, dopamine transporter; format: binding
T2 construct: MDS Pharma Services Taiwan

[3] = Microsomal metabolic stability screen, pooled human liver microsomes (HLM); format: in vitro ADME; conditions: 10 µM prodrug, 0.1 mg/mL HLM, NADPH regenerating system, 37 °C, 60 min, n = 2; LOD 0.1 ng/mL
Method: Human liver microsome (HLM) stock solution preparation. HLM (0.5 mL) stock was added to PBS solution (9.5 mL). Final concentration; 1 mg/mL. The PBS solution was prepared by addition of one USP PBS tablet (Sigma-Aldrich catalogue number P4417) dissolved in 200 mL deionised water.
(§1) Microsomes, NADPH regenerating solutions A and B were thawed rapidly to 37 °C, then kept on wet ice until ready for use. A stock solution of the prodrug (5 mM) was prepared in ACN. To a 1.7 mL microcentrifuge tube in a 37 °C water bath was added the phosphate buffered saline solution (349 µL), the NADPH regenerating solution A (50 µL), the NADPH regenerating solution B (50 µL), and the prodrug solution (1 µL). After incubation for 5 min, microsome solution (50 µL) was added and the metabolism was initiated. The tube was vortex mixed. The final concentrations in this solution was 10 µM prodrug, 0.1 mg/mL HLM or 0.02 mg/mL HIM, 1.3 mM NADP^+, 0.4 U/mL glucose-6-phosphate dehydrogenase and 0.2% organic solvent. This solution was incubated for 60 min at 37 °C. The reaction was quenched by addition of acetonitrile (500 µL). The mixture was centrifuged at 10,000 × g for 10 min. The supernatant was analyzed by LC-MS analysis.
After passing through the intestinal membrane into the portal circulation the prodrug quickly enters the liver. This metabolic condition was simulated in the present work by using pooled human liver microsomes (HLM).

[4] = Screening incubation in USP simulated gastric fluid (SGF); conditions: incubation 37 °C, one hour, n = 2; <LOD = bupropion, its metabolites or other prodrugs not detected; LOD 0.1 ng/mL
Method: USP simulated gastric fluid preparation. Sodium chloride (0.02 g) and purified pepsin (0.032 g) that is derived from porcine stomach mucosa with an activity of 800 to 2,500 units per mg of protein were dissolved in 0.07 mL of concentrated hydrochloric acid and sufficient water to make 10 mL.
(§2) Pepsin is most efficient at cleaving peptide bonds between hydrophobic and aromatic amino acids such as phenylalanine, tryptophan and tyrosine. In order to simulate the pH and digestive enzymes of the stomach, USP simulated gastric fluid (SGF) was used. Conditions in the intestine were simulated using USP simulated intestinal fluid (SIF).
(§3) One hour metabolism or hydrolysis was considered to be sufficient time to generate detectable levels of metabolites, bearing in mind the likely exposure time in vivo. A blank media was used in each analysis to subtract a background from each LC-MS sample chromatogram. A t0 sample was also used to identify impurities related to each prodrug.
(§4) After one hour incubation of each compound in the selected media, the mixture was quenched with acetonitrile and the sample was centrifuged to remove precipitated proteins. The supernatant solution was analyzed immediately by LC-MS using data dependent acquisition analysis.
(§5) This transformation is commonly used to assess activity of oxidative enzyme CYP2B6 in human liver and intestinal microsomes. […] It was important to report if any of the other prodrugs were detected if for instance a possible multistep-prodrug was found.

[5] = biological target: Nicotinic acetylcholine; experiment: Pharmacological screen, nicotinic acetylcholine receptor binding
Method: 2.4. Plasma LLOQ/Precision […]
of 10 ng/mL. […] ACN (200 µL) […]
was added and the solution was vortex mixed. The remaining mixture was centrifuged at 10,000 rpm […]
The final concentration was 1 ng/mL. […]
signal to noise ratio of three.
2.6. Brain LLOQ Accuracy/Precision
Aliquots (5 × 200 µL) were […]
transferred to 1.5 mL microcentrifuge tubes.
ACN (300 µL) was added and […]
the solution was vortex mixed. […] 200 µL
The solution was vortex mixed again and analysed by HPLC. Final concentrations were 12.5, 125 ng/mL.
2.7. Pharmacological Screening of N-Methyl Bupropion and Bupropion […]
nicotinic acetylcholine receptor [5,6] and SERT [7,8]. The specific nicotinic acetylcholine assays are […]
and nicotinic acetylcholine α7 [12].
3. Results Method Validation […]
diluent solutions separately.

[6] = biological target: T1, Serotonin transporter (SERT)
[7] = biological target: T3, Norepinephrine transporter (NET) (Homo sapiens, UniProt P23975); experiment: Pharmacological screen, norepinephrine transporter; format: binding
T3 construct: MDS Pharma Services Taiwan

[8] = Screening incubation in pooled human plasma (PHP); format: in vitro ADME; conditions: incubation 37 °C, one hour, n = 2; <LOD = bupropion, its metabolites or other prodrugs not detected; LOD 0.1 ng/mL
Source text: Pooled human plasma solution preparation. Citrated human plasma was pooled together from three separate donors.
Finally, pooled human plasma (PHP) was used to evaluate the prodrug stability/activation in blood since the plasma fraction contains much of the hydrolase activity in blood.

[9] = Screening incubation in USP simulated intestinal fluid (SIF); conditions: incubation 37 °C, one hour, n = 2; <LOD = bupropion, its metabolites or other prodrugs not detected; LOD 0.1 ng/mL
Method: USP simulated intestinal fluid preparation. Monobasic potassium phosphate (0.068 g) was dissolved in 2.5 mL of water and mixed. Sodium hydroxide (0.77 mL of 0.2 M) and water (5.0 mL) were added. Pancreatin (0.1 g) was added and the pH adjusted with either 0.2 M sodium hydroxide or 0.2 M hydrochloric acid to a pH of 6.8 ± 0.1. The solution was diluted to 10 mL with water.
as §2, §3, §4, §5

[10] = Aqueous pH stability profile at 40 °C
[11] = Michaelis-Menten kinetics of bupropion formation in pooled human liver microsomes; format: in vitro ADME; conditions: pooled HLM 0.1 mg/mL, substrate 1–500 µM, 20 min, 37 °C, n = 6
Method: Microsomes, NADPH regenerating solutions A and B were thawed rapidly to 37 °C, and then kept on ice until ready for use. Substrate solutions were prepared (1–500 µM) where the maximum concentration of DMSO was 1%, and the concentration of microsomes, NADPH regenerating solution B and phosphate buffer was fixed. After incubation for 5 min, NADPH regenerating solution A was added and the metabolism was initiated. Final volume was 100 μL. The tube was inverted twice and vortex mixed. The final concentrations of prodrug in this solution was 1–500 µM, HLM (0.1 mg/mL) or HIM (0.02 mg/mL), NADP^+ (1.3 mM), glucose-6-phosphate dehydrogenase (0.4 U/mL) and 1.0% DMSO. This solution was incubated for 20 min at 37 °C. The reaction was quenched by addition of 100 µL of acetonitrile. The mixture was centrifuged at 10,000 × g for 10 min. The supernatant was analyzed by LC-MS analysis.

[12] = biological target: Muscarinic non -selective, central; experiment: Pharmacological screen, muscarinic receptor binding
[13] = Microsomal metabolic stability screen, pooled human intestinal microsomes (HIM); format: in vitro ADME; conditions: 10 µM prodrug, 0.02 mg/mL HIM, NADPH regenerating system, 37 °C, 60 min, n = 2; LOD 0.1 ng/mL
Method: Human intestinal microsome (HIM) stock solution preparation. HIM (0.2 mL) stock was added to PBS solution (9.8 mL). Final concentration; 0.2 mg/mL.
as §1
The intestinal cells contain cytochome P450 enzymes, flavin monoxygenases, esterases and UDP glucuroyl transferases. Condition III involved the use of pooled human intestinal microsomes (HIM) in order to simulate the potential metabolism that occurs during absorption and passage through the intestinal wall.

T3 sequence (P23975 whole entry): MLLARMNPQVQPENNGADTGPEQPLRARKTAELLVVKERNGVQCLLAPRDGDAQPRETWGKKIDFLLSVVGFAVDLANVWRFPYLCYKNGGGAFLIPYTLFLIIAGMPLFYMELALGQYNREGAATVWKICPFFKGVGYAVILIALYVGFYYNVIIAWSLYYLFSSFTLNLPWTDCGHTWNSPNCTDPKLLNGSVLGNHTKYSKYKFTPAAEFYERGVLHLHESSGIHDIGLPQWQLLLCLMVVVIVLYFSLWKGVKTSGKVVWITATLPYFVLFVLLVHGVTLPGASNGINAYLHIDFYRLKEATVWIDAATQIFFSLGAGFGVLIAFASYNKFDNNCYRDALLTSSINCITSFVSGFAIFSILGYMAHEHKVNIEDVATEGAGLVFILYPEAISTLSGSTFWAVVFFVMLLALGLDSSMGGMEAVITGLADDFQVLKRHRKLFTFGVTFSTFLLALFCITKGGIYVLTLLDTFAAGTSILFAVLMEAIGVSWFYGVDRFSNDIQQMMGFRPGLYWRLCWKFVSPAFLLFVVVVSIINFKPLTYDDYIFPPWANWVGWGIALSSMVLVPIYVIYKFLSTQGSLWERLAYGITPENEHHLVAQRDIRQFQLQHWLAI
T2 sequence (Q01959 whole entry): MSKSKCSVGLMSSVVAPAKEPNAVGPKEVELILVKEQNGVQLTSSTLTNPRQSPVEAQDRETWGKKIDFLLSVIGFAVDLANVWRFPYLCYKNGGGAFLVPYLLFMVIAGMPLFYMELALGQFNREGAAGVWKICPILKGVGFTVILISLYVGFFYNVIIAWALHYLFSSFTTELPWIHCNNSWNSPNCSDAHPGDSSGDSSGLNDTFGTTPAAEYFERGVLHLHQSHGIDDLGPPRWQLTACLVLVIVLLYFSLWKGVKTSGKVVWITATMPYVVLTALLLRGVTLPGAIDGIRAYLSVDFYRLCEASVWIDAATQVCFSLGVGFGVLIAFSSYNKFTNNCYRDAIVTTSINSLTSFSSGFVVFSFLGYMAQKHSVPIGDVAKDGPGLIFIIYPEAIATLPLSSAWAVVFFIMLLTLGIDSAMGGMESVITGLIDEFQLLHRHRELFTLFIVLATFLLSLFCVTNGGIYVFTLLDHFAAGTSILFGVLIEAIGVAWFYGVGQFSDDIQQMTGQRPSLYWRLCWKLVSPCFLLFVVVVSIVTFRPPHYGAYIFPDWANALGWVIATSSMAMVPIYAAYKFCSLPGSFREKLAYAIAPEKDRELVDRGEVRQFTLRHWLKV
T1 sequence (P31645 whole entry): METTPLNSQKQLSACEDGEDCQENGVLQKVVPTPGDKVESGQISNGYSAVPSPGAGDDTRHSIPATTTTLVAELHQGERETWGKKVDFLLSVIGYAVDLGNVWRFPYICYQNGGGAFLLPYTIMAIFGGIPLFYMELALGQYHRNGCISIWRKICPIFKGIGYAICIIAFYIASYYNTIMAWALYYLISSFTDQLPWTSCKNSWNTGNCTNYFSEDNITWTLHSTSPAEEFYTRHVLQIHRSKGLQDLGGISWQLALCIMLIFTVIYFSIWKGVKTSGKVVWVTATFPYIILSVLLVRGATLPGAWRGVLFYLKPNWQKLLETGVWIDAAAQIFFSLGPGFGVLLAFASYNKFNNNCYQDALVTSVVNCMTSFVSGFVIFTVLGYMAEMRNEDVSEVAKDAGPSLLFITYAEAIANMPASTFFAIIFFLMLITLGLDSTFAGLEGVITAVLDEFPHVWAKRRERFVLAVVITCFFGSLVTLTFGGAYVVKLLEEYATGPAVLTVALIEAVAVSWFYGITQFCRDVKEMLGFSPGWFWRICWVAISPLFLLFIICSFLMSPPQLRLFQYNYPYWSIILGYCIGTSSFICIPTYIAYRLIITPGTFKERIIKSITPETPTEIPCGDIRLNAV

CC(C(=O)c1cccc(Cl)c1)N(C)C(C)(C)C (racemic) [Compound 4, Rac-N-methyl bupropion]
IC50 [1]: > 100 µM
IC50 [2]: 3.71 µM
Ki [2]: 2.95 µM
nH (Hill coefficient) ([2]; DAT): 0.924
activity as dopamine reuptake inhibitor, in words ([2]; compared with bupropion): less active than bupropion
Primary product detected in media HLM [3]: bupropion was detected
Primary product detected in media SGF [4]: <LOD
IC50 ([5]; Nicotinic acetylcholine): 71.6 µM
Ki ([5]; Nicotinic acetylcholine, Cheng and Prusoff): 49.2 µM
activity at the nicotinic acetylcholine receptors, in words ([5]; compared with bupropion): more active than bupropion
effect on the serotonin transporter system, in words [6]: little effect
IC50 [7]: 57.9 µM
Ki [7]: 54.4 µM
nH (Hill coefficient) ([7]; NET): 0.764
activity as norepinephrine reuptake inhibitor, in words ([7]; compared with bupropion): less active than bupropion
Primary product detected in media PHP [8]: <LOD
Primary product detected in media SIF [9]: <LOD
aqueous degradation rate above pH 5 ([10]; above pH 5): degraded faster than bupropion
aqueous degradation rate above pH 12 ([10]; above pH 12): rate of degradation decreased quite dramatically
aqueous stability / degradation rate below pH 5 ([10]; below pH 5): stable
Vmax of bupropion formation [11]: 900.4 ± 73.8 pmol/min/mg HLM
Vmax of bupropion formation ([11]; listed as N-methylbupropion): 900.4 ± 74 pmol/min/mg HLM
IC50 [12]: 39.3 µM
Ki ([12]; Cheng and Prusoff): 12.3 µM
Primary product detected in media HIM [13]: bupropion was detected
